Here are results for 2 compounds from PubChem BioAssay AID1259407 (Chemical Carcinogenesis Research Information System (CCRIS), 2018).

Calls of active or inactive are those of the source. The rule behind the calls is not given here.

The subject of the series is CCRIS mutagenicity, Ames/micronucleus/aberration tests. Nature of the series: CCRIS mutagenicity studies. As to conditions: Test System: AMES SALMONELLA TYPHIMURIUM

For the compound `O=C1C=C(O)c2ccccc2C1=O`, the mutagenic call (Strain/Indicator: TA98, Metabolic Activation: HAMSTER, LIVER, S-9, AROCLOR 1254 (10%), Method: PREINCUBATION) was “inactive; negative”; the mutagenic call (Strain/Indicator: TA98, Metabolic Activation: NONE, Method: PREINCUBATION) was “inactive; negative”; the mutagenic call (Strain/Indicator: TA98, Metabolic Activation: RAT, LIVER, S-9, AROCLOR 1254 (10%), Method: PREINCUBATION) is “inactive; negative”; the mutagenic call (Strain/Indicator: TA98, Metabolic Activation: RAT, LIVER, S-9, PHENOBARBITAL AND 5,6-BENZOFLAVONE, Method: PREINCUBATION) is “inactive; negative”; the mutagenic call (Strain/Indicator: TA100, Metabolic Activation: HAMSTER, LIVER, S-9, AROCLOR 1254 (10%), Method: PREINCUBATION) is “inactive; negative”; the mutagenic call (Strain/Indicator: TA100, Metabolic Activation: NONE, Method: PREINCUBATION) is “inactive; negative”. The mutagenic call (Strain/Indicator: TA100, Metabolic Activation: RAT, LIVER, S-9, AROCLOR 1254 (10%), Method: PREINCUBATION) is “inactive; negative”; the mutagenic call (Strain/Indicator: TA100, Metabolic Activation: RAT, LIVER, S-9, PHENOBARBITAL AND 5,6-BENZOFLAVONE, Method: PREINCUBATION) was “inactive; negative”; the mutagenic call (Strain/Indicator: TA102, Metabolic Activation: NONE, Method: PREINCUBATION) was “inactive; negative”; the mutagenic call (Strain/Indicator: TA102, Metabolic Activation: RAT, LIVER, S-9, PHENOBARBITAL AND 5,6-BENZOFLAVONE, Method: PREINCUBATION) was “inactive; negative”; the mutagenic call (Strain/Indicator: TA104, Metabolic Activation: NONE, Method: PREINCUBATION) was “inactive; negative”; the mutagenic call (Strain/Indicator: TA104, Metabolic Activation: RAT, LIVER, S-9, PHENOBARBITAL AND 5,6-BENZOFLAVONE, Method: PREINCUBATION) was “inactive; negative”. Further, the mutagenic call (Strain/Indicator: TA1535, Metabolic Activation: HAMSTER, LIVER, S-9, AROCLOR 1254 (10%), Method: PREINCUBATION) is “inactive; negative”; the mutagenic call (Strain/Indicator: TA1535, Metabolic Activation: NONE, Method: PREINCUBATION) was “inactive; negative”; the mutagenic call (Strain/Indicator: TA1535, Metabolic Activation: RAT, LIVER, S-9, AROCLOR 1254 (10%), Method: PREINCUBATION) was “inactive; negative”; the mutagenic call (Strain/Indicator: TA1535, Metabolic Activation: RAT, LIVER, S-9, PHENOBARBITAL AND 5,6-BENZOFLAVONE, Method: PREINCUBATION) was “inactive; negative”; the mutagenic call (Strain/Indicator: TA1537, Metabolic Activation: HAMSTER, LIVER, S-9, AROCLOR 1254 (10%), Method: PREINCUBATION) was “inactive; negative”; the mutagenic call (Strain/Indicator: TA1537, Metabolic Activation: NONE, Method: PREINCUBATION) is “inactive; negative”. Besides, the mutagenic call by setting is: (Strain/Indicator: TA1537, Metabolic Activation: RAT, LIVER, S-9, AROCLOR 1254 (10%), Method: PREINCUBATION) “active; positive”; (Strain/Indicator: TA1537, Metabolic Activation: RAT, LIVER, S-9, PHENOBARBITAL AND 5,6-BENZOFLAVONE, Method: PREINCUBATION) “inactive; negative”; (Strain/Indicator: TA1538, Metabolic Activation: NONE, Method: PREINCUBATION) “inactive; negative”; (Strain/Indicator: TA1538, Metabolic Activation: RAT, LIVER, S-9, PHENOBARBITAL AND 5,6-BENZOFLAVONE, Method: PREINCUBATION) “inactive; negative”; (Strain/Indicator: TA2637, Metabolic Activation: NONE, Method: PREINCUBATION) “inactive; negative”; (Strain/Indicator: TA2637, Metabolic Activation: RAT, LIVER, S-9, PHENOBARBITAL AND 5,6-BENZOFLAVONE, Method: PREINCUBATION) “inactive; negative”.

Consider `CC(C)NCC(O)COc1cccc2[nH]c3ccccc3c12` (stereo not drawn), for which the mutagenic call by setting is: (Strain/Indicator: TA98, Metabolic Activation: NONE, Method: STANDARD PLATE) “inactive; negative”; (Strain/Indicator: TA98, Metabolic Activation: RAT, LIVER, S-9, AROCLOR 1254, Method: STANDARD PLATE) “inactive; negative”; (Strain/Indicator: TA100, Metabolic Activation: NONE, Method: STANDARD PLATE) “inactive; negative”; (Strain/Indicator: TA100, Metabolic Activation: RAT, LIVER, S-9, AROCLOR 1254, Method: STANDARD PLATE) “inactive; negative”.
